Experimental data as given in patent publication US20210198277A1, “AMINE-SUBSTITUTED ARYL OR HETEROARYL COMPOUNDS” (Epizyme, Inc., priority 2016, published 2021).

What follows are compounds tested against T1, EHMT2 (Homo sapiens, UniProt Q96KQ7) (assay: MDA-MB-231 H3K9me2 in-cell Western assay (EHMT2 ICW)). Details: H3K9me2 in-cell Western, MDA-MB-231 cells; read-out: EHMT2 ICW (IC50 μM).
T1 construct: host or cells: MDA-MB-231
T1 sequence (Q96KQ7 1-1210): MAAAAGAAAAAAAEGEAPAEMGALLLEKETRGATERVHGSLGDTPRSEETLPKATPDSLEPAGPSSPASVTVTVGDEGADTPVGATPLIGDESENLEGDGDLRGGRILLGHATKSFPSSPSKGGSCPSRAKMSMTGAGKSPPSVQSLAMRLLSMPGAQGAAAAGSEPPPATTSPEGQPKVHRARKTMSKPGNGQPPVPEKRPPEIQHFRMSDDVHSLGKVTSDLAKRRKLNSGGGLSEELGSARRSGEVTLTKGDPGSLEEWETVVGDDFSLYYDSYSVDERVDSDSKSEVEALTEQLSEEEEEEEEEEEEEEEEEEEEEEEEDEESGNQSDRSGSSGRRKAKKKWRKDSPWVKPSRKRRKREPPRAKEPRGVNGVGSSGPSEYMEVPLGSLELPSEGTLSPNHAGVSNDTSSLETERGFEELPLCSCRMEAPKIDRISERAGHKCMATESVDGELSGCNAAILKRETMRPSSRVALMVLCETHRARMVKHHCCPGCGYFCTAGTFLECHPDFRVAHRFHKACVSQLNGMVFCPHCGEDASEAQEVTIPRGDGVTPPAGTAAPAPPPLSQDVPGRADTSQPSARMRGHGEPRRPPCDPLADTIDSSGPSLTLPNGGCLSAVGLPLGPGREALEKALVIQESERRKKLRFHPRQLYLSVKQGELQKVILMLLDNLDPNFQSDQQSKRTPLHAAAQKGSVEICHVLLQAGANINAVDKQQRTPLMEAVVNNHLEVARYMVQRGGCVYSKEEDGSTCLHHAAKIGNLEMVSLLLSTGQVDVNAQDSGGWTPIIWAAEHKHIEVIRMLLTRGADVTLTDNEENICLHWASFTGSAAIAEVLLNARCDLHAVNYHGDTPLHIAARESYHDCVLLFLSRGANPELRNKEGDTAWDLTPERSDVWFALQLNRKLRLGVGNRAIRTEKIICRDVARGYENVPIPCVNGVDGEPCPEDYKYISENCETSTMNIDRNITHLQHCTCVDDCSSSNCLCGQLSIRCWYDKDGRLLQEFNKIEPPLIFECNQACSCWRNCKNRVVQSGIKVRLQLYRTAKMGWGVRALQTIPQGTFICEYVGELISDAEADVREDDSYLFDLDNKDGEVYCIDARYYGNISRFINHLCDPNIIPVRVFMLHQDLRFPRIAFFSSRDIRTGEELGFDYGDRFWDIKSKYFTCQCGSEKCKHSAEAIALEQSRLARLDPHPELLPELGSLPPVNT
Format: cell-based
Method in brief: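 Infrared read-out at 800 and 700 nm (H3K9me2 antibody vs DRAQ5 DNA stain) of fixed MDA-MB-231 cells after 48 h compound treatment at 37 °C. Well ratios were converted to percent inhibition, and IC50 was obtained by variable-slope nonlinear regression on triplicates.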

| SMILES | IC50 |
| --- | --- |
| CNc1ccnc(Nc2cc(OCCCN3CCCC3)c3cn[nH]c3c2)n1 [Compound 538, N^4-methyl-N^2-(4-(3-(pyrrolidin-1-yl)propoxy)-1H-indazol-6-yl)pyrimidine-2,4-diamine] | > 10 µM |
| CNc1ccnc(Nc2cc(OCCCN3CCCC3)c3[nH]ncc3c2)n1 [Compound 539] | > 10 µM |
| CNc1ccnc(NC2CCCNC2)n1 (stereo not drawn) [Compound 541, N^4-methyl-N^2-(piperidin-3-yl)pyrimidine-2,4-diamine] | > 10 µM |
| CNc1ccnc(NC2CCNCC2)n1 [Compound 542, N^4-methyl-N^2-(piperidin-4-yl)pyrimidine-2,4-diamine] | > 10 µM |
| CCCC1(Nc2nccc(NC)n2)CCCNC1 (stereo not drawn) [Compound 544] | > 10 µM |
| CCCC1(Nc2nccc(NC)n2)CCNCC1 [Compound 545] | > 10 µM |
| CNc1ccnc(NC2(C)CCCNC2)n1 (stereo not drawn) [Compound 546, N^4-methyl-N^2-(3-methylpiperidin-3-yl)pyrimidine-2,4-diamine] | > 10 µM |
| CNc1ccnc(NC2(C)CCNCC2)n1 [Compound 547, N^4-methyl-N^2-(4-methylpiperidin-4-yl)pyrimidine-2,4-diamine] | > 10 µM |
| CNc1ccnc(N[C@@H]2CC[C@H](N)C2)n1 [Compound 548, N^2-((1R,3S)-3-aminocyclopentyl)-N^4-methylpyrimidine-2,4-diamine] | > 10 µM |
| CCCCN1CCCC(C)(Nc2nccc(NC)n2)C1 (stereo not drawn) [Compound 549, N^2-(1-butyl-3-methylpiperidin-3-yl)-N^4-methylpyrimidine-2,4-diamine] | > 10 µM |
| CCCCN1CCC(C)(Nc2nccc(NC)n2)CC1 [Compound 550, N^2-(1-butyl-4-methylpiperidin-4-yl)-N^4-methylpyrimidine-2,4-diamine] | > 10 µM |
| c1nc(NC2CCNCC2)ncc1OCCCN1CCCC1 [Compound 552] | > 10 µM |
| CN1CCC(COc2cnc(NCC3CCOCC3)nc2)C1 (stereo not drawn) [Compound 553] | > 10 µM |
| CN1CCC(COc2ccc(NC3CCNCC3)nc2)C1 (stereo not drawn) [Compound 554] | > 10 µM |
| CN1CCC(COc2cnc(NC3CCNCC3)nc2)C1 (stereo not drawn) [Compound 555] | > 10 µM |
| c1nc(NC2CCNCC2)ncc1OCC1CCN(C2CC2)C1 (stereo not drawn) [Compound 556] | > 10 µM |
| c1nc(NC2CCOCC2)ncc1OCC1CCN(C2CC2)C1 (stereo not drawn) [Compound 557] | > 10 µM |
| CNc1cc(C)nc(Nc2ccc(OC)c(O)c2)n1 [Compound 561] | > 10 µM |
| CCN1CC(COc2cc(Nc3nccc4[nH]ccc34)ncc2OC)C1 [Compound 564] | > 10 µM |

| SMILES | IC50 |
| --- | --- |
| CCN1CC(COc2cc(Nc3cc(NC)ncc3F)ncc2OC)C1 [Compound 566] | > 10 µM |
| CCN1CC(COc2cc(Nc3cc(NC)nc(C)c3F)ncc2OC)C1 [Compound 567] | > 10 µM |
| COc1ccc(NC2CCNCC2)cc1OCCCN1CCCC1 [Compound 572] | > 10 µM |
| COc1ccc(NC2CCCNC2)cc1OCCCN1CCCC1 (stereo not drawn) [Compound 573] | > 10 µM |
| CNc1cc(C)nc(Nc2ccc(OC)c(OCCCN3CC4(CC4)C3)c2)n1 [Compound 574] | > 10 µM |
| CNc1cc(C)nc(Nc2ccc(OC)c(OCC3CN(C4CCCC4)C3)c2)n1 [Compound 577] | > 10 µM |
| COc1cc(NC2CCCNC2)ccc1OCCCN1CCCC1 (stereo not drawn) [Compound 578] | > 10 µM |
| COc1cc(NC2CCNCC2)ccc1OCCCN1CCCC1 [Compound 579] | > 10 µM |
| CNc1cc(C)nc(Nc2ccc(OC)c(OCC3CN(C4CCOC4)C3)c2)n1 (stereo not drawn) [Compound 580] | > 10 µM |
| COc1cnc(Nc2cccc3[nH]ncc23)cc1OCCCN1CCCC1 [Compound 581] | > 10 µM |
| COc1ccc(Nc2nccc3[nH]ncc23)cc1OCCCN1CCCC1 [Compound 582] | > 10 µM |
| COc1cnc(Nc2ccnc3[nH]ncc23)cc1OCCCN1CCCC1 [Compound 583] | > 10 µM |
| CCN1CC(COc2cc(Nc3cccc4nncn34)ncc2OC)C1 [Compound 584] | > 10 µM |
| COc1cnc(Nc2cccn3ccnc23)cc1OCCCN1CCCC1 [Compound 586] | > 10 µM |
| CC(C)N1CC(COc2cnc(NC3CCNCC3)nc2)C1 [Compound 588] | > 10 µM |
| COc1cnc(Nc2cccc3cncn23)cc1OCCCN1CCCC1 [Compound 589] | > 10 µM |
| COc1cnc(Nc2cc(C)nc3[nH]ncc23)cc1OCCCN1CCCC1 [Compound 596] | > 10 µM |
| C/C=C/C(=O)Nc1cc(OCCCN2CCCC2)c(OC)cn1 [Compound 597] | > 10 µM |
| C/C=C/C(=O)Nc1ccc(OC)c(OCCCN2CCCC2)c1 [Compound 598] | > 10 µM |

Results, then the compound that gave them:

| IC50 | SMILES |
| --- | --- |
| 0.1 to 1 µM | CNc1cc(C)nc(Nc2ccc(OC)c(OCCCN(C)C3CCC3)c2)n1 [Compound 551, N^2-(3-(3-(cyclobutyl(methyl)amino)propoxy)-4-methoxyphenyl)-N^4,6-dimethylpyrimidine-2,4-diamine] |
| 0.1 to 1 µM | CNc1cc(C)nc(Nc2cnc(OC)c(OC[C@H]3CCN(C4CC4)C3)c2)n1 [Compound 558] |
| 0.1 to 1 µM | CNc1cc(C)nc(Nc2ccc(OC)c(OCC3CN(C(C)C)C3)c2)n1 [Compound 559] |
| 0.1 to 1 µM | CCN1CC(C(O)Oc2cc(Nc3nc(C)cc(NC)n3)ccc2OC)C1 (stereo not drawn) [Compound 560] |
| 1 to 10 µM | CCN1CC(C(C#N)Oc2cc(Nc3nc(C)cc(NC)n3)ccc2OC)C1 (stereo not drawn) [Compound 562] |
| < 0.1 µM | CNc1cc(C)nc(Nc2ccc(OC)c(OC[C@@H]3CCN(C4CCC4)C3)c2)n1 [Compound 563] |
| 1 to 10 µM | COc1cc(Nc2nc(C)cc3[nH]ncc23)ncc1OCCCN1CCCC1 [Compound 565] |
| 0.1 to 1 µM | CNc1cc(C)nc(Nc2ccc(OC)c(OC[C@@H]3CCN(C4(C)CC4)C3)c2)n1 [Compound 568] |
| 0.1 to 1 µM | CCN1CC(COc2cc(Nc3cc(NC)cc(C)n3)cnc2OC)C1 [Compound 569] |
| 0.1 to 1 µM | CCN1CC[C@@H](COc2cc(Nc3nc(C)cc(NC)n3)ccc2OC)C1 [Compound 571] |
| 1 to 10 µM | CNc1cc(C)nc(Nc2ccc(OC)c(OCC3CN(C(C)C)C3)c2)n1 [Compound 575] |
| 0.1 to 1 µM | CNc1cc(C)nc(Nc2ccc(OC)c(OCC3CN(C4CCC4)C3)c2)n1 [Compound 576] |
| 1 to 10 µM | COc1cnc(Nc2cccc3nccn23)cc1OCCCN1CCCC1 [Compound 585] |
| 0.1 to 1 µM | COc1cc2c(C3CCN(C)CC3)nc(N(C)C)nc2cc1OCCCN1CCCC1 [Compound 587] |
| 0.1 to 1 µM | COc1ccc(Nc2nc(C)cc(NCC3CCOCC3)n2)cc1OCCCN1CCCC1 [Compound 590] |
| 0.1 to 1 µM | COc1ncc(Nc2nc(C)cc(NCC3CCOCC3)n2)cc1OCCCN1CCCC1 [Compound 591] |
| 0.1 to 1 µM | COc1ncc(Nc2nc(C)cc(NCC3CCOCC3)n2)cc1OC[C@@H]1CCN(C(C)C)C1 [Compound 592] |
| 0.1 to 1 µM | COc1ncc(Nc2nc(C)cc(NC(C)C)n2)cc1OCCCN1CCCC1 [Compound 593] |
| 0.1 to 1 µM | COc1ncc(Nc2nc(C)cc(NCC3CCOCC3)n2)cc1OC[C@@H]1CCN(C2CCC2)C1 [Compound 594] |
| 0.1 to 1 µM | COc1ncc(Nc2nc(C)cc(NCC3CCOCC3)n2)cc1OC[C@@H]1CCN(C2CCC2)C1 [Compound 595] |
| 0.1 to 1 µM | CCN1CC[C@@H](COc2cc(Nc3nc(C)cc(NC)n3)cnc2OC)C1 [Compound 599] |
| < 0.1 µM | CNc1cc(C)nc(Nc2ccc(OC)c(OC[C@@H]3CCNC3)c2)n1 [Compound 600] |
| 0.1 to 1 µM | CCc1cc(NC)nc(Nc2cnc(OC)c(OC[C@@H]3CCN(CC)C3)c2)n1 [Compound 601] |
| 0.1 to 1 µM | CCN1CC[C@@H](COc2cc(Nc3nc(C)cc(NC(C)C)n3)ccc2OC)C1 [Compound 602] |
| 0.1 to 1 µM | COc1ccc(Nc2nc(C)cc(NC(C)C)n2)cc1OCCCN1CCCC1 [Compound 603] |
